Assay: Effect of temperature (and pH) on the stability of the solution (purity)
Type: physicochemical
Settings: 7% solution in water

Q: With `CCN(CC)CCOC(=O)C(C)c1ccc(-c2ccccc2)c(F)c1.Cl` (racemic) as the compound, how does the “Purity(%) at day 21 (5° C.)” value (pH 1.0, day 21, 5° C.) read?
A: The value was 94.0 ± 0.3%.

Q: And the “Purity(%) at day 21 (25° C.)” value (pH 1.0, day 21, 25° C.)?
A: Its value is 72.0 ± 0.3%.

Q: What about the “Purity(%) at day 21 (40° C.)” value (pH 1.0, day 21, 40° C.) of the same compound?
A: Its value is 18.5 ± 0.3%.

Q: What about the “Purity (%) at day 21 (60° C.)” value (pH 1.0, day 21, 60° C.) of the same compound?
A: Its value is 0%.

Q: What about the “Purity(%) at day 21 (25° C.)” value (pH 2.0, day 21, 25° C.) of the same compound?
A: The value was 86.1 ± 0.3%.

Q: What about the “Purity(%) at day 21 (40° C.)” value (pH 2.0, day 21, 40° C.) of the same compound?
A: Its value is 30.1 ± 0.4%.

Q: And the “Purity (%) at day 21 (60° C.)” value (pH 2.0, day 21, 60° C.)?
A: Its value is 0%.

Q: And the “Purity(%) at day 21 (25° C.)” value (pH 3.0, day 21, 25° C.)?
A: Its value is 96.0 ± 0.2%.

Q: What about the “Purity(%) at day 21 (40° C.)” value (pH 3.0, day 21, 40° C.) of the same compound?
A: The value was 56.5 ± 0.3%.

Q: And the “Purity (%) at day 21 (60° C.)” value (pH 3.0, day 21, 60° C.)?
A: Its value is 8.7 ± 0.3%.

Q: And the “Purity(%) at day 21 (25° C.)” value (pH 3.7, day 21, 25° C.)?
A: Its value is 97.5 ± 0.1%.

Q: What about the “Purity(%) at day 21 (40° C.)” value (pH 3.7, day 21, 40° C.) of the same compound?
A: The value was 64.5 ± 0.3%.

Q: And the “Purity (%) at day 21 (60° C.)” value (pH 3.7, day 21, 60° C.)?
A: The value was 16.2 ± 0.3%.

Q: What about the “Purity(%) at day 21 (40° C.)” value (pH 4.0, day 21, 40° C.) of the same compound?
A: The value was 72.3 ± 0.3%.

Q: And the “Purity (%) at day 21 (60° C.)” value (pH 4.0, day 21, 60° C.)?
A: The value was 22.4 ± 0.3%.

Q: What about the “Purity(%) at day 21 (40° C.)” value (pH 4.3, day 21, 40° C.) of the same compound?
A: Its value is 72.2 ± 0.3%.

Q: And the “Purity (%) at day 21 (60° C.)” value (pH 4.3, day 21, 60° C.)?
A: Its value is 18.3 ± 0.2%.

Q: And the “Purity(%) at day 21 (40° C.)” value (pH 4.6, day 21, 40° C.)?
A: Its value is 58.1 ± 0.4%.

Q: What about the “Purity (%) at day 21 (60° C.)” value (pH 4.6, day 21, 60° C.) of the same compound?
A: Its value is 10.4 ± 0.3%.

Q: What about the “Purity(%) at day 21 (5° C.)” value (pH 5.0, day 21, 5° C.) of the same compound?
A: The value was 97.6 ± 0.2%.

Q: What about the “Purity(%) at day 21 (25° C.)” value (pH 5.0, day 21, 25° C.) of the same compound?
A: The value was 96.7 ± 0.2%.

Q: What about the “Purity(%) at day 21 (40° C.)” value (pH 5.0, day 21, 40° C.) of the same compound?
A: The value was 50.1 ± 0.3%.

Q: What about the “Purity (%) at day 21 (60° C.)” value (pH 5.0, day 21, 60° C.) of the same compound?
A: Its value is 3.0 ± 0.3%.

Q: What about the “Purity(%) at day 21 (5° C.)” value (pH 6.0, day 21, 5° C.) of the same compound?
A: Its value is 95.4 ± 0.2%.

Q: And the “Purity(%) at day 21 (25° C.)” value (pH 6.0, day 21, 25° C.)?
A: The value was 90.5 ± 0.3%.

Q: What about the “Purity(%) at day 21 (40° C.)” value (pH 6.0, day 21, 40° C.) of the same compound?
A: Its value is 29.7 ± 0.4%.

Q: And the “Purity (%) at day 21 (60° C.)” value (pH 6.0, day 21, 60° C.)?
A: The value was 0%.

Q: What about the “Purity(%) at day 21 (5° C.)” value (pH 7.0, day 21, 5° C.) of the same compound?
A: The value was 89.7 ± 0.3%.

Q: What about the “Purity(%) at day 21 (25° C.)” value (pH 7.0, day 21, 25° C.) of the same compound?
A: The value was 75.1 ± 0.3%.

Q: What about the “Purity(%) at day 21 (40° C.)” value (pH 7.0, day 21, 40° C.) of the same compound?
A: Its value is 19.8 ± 0.3%.

Q: And the “Purity (%) at day 21 (60° C.)” value (pH 7.0, day 21, 60° C.)?
A: The value was 0%.

Q: What about the “Purity(%) at day 21 (5° C.)” value (pH 8.0, day 21, 5° C.) of the same compound?
A: Its value is 81.9 ± 0.3%.

Q: And the “Purity(%) at day 21 (25° C.)” value (pH 8.0, day 21, 25° C.)?
A: The value was 52.8 ± 0.3%.

Q: What about the “Purity(%) at day 21 (40° C.)” value (pH 8.0, day 21, 40° C.) of the same compound?
A: Its value is 0%.

Q: What about the “Purity (%) at day 21 (60° C.)” value (pH 8.0, day 21, 60° C.) of the same compound?
A: The value was 0%.

Source: patent US20230157952A1, “METHOD FOR IMPROVING THE STABILITY OF A PHARMACEUTICAL COMPOSITION COMPRISING A HIGH PENETRATION DRUG, AND THE PHARMACEUTICAL COMPOSITION OBTAINED THEREFROM” (Techfields Inc., priority 2020, published 2023)
